Format in all cases: cell-based
In one experiment the target is T1, MOR164-2 (Mus musculus, UniProt Q7TRB9).
T1 construct: gene Or8b56; ORF from mouse genomic DNA, N-terminal Rho-tag, pCI; Hana3A cells with RTP1S and M3-R
T1 sequence (Q7TRB9 1-317): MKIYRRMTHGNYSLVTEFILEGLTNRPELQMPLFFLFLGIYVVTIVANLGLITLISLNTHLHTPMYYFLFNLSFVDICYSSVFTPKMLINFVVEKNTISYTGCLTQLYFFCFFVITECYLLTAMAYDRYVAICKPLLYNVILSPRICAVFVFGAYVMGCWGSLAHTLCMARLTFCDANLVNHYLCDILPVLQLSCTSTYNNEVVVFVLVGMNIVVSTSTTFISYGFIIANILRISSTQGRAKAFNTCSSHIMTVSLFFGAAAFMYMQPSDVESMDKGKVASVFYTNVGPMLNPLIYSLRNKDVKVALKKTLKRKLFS
In words: CRE-luciferase reporter assay in Hana3A cells. The following applies: no CYP co-expressed; RTP1S and M3-R; 3 h, 37 °C; agonist. In general terms: A reporter such as luciferase makes a cellular process visible.

The next experiment concerns the target T2, MOR123-2 (Mus musculus, UniProt E9Q8M2).
T2 construct: gene Or10aa3; ORF from mouse genomic DNA, N-terminal Rho-tag, pCI; Hana3A cells with RTP1S and M3-R
T2 sequence (E9Q8M2 1-312): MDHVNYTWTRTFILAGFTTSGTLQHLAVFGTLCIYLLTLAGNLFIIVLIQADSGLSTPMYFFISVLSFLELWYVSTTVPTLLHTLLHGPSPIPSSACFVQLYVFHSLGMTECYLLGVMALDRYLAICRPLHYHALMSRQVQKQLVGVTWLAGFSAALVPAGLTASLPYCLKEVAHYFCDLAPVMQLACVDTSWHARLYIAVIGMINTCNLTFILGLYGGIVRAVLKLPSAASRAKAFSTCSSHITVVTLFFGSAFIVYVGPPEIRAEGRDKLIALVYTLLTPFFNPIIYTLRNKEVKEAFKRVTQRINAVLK
As to the kind of experiment: CRE-luciferase reporter assay in Hana3A cells. The following applies: no CYP co-expressed; RTP1S and M3-R; 3 h, 37 °C; agonist.

The target of a further experiment is T3, MOR161-2 (Mus musculus, UniProt Q7TRE6).
T3 construct: gene Or8b12; Hana3A cells with RTP1S and M3-R
T3 sequence (Q7TRE6 1-310): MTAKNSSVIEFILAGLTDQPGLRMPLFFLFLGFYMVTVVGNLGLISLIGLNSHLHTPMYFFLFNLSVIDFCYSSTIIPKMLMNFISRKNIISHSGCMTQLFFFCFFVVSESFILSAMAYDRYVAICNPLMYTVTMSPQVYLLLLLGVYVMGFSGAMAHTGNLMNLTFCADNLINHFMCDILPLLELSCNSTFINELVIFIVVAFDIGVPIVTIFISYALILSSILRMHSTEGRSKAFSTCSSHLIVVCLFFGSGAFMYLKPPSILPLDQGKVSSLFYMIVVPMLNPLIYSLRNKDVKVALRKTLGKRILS
As to the kind of experiment: CRE-luciferase reporter assay in Hana3A cells. To be noted: no CYP co-expressed; RTP1S and M3-R; 3 h, 37 °C; agonist.

The next experiment addresses T4, CYP1a2 (Mus musculus, UniProt P00186).
T4 construct: cDNA from mouse olfactory epithelium library, pCI vector, expressed in Hana3A cells
T4 sequence (P00186 2-513): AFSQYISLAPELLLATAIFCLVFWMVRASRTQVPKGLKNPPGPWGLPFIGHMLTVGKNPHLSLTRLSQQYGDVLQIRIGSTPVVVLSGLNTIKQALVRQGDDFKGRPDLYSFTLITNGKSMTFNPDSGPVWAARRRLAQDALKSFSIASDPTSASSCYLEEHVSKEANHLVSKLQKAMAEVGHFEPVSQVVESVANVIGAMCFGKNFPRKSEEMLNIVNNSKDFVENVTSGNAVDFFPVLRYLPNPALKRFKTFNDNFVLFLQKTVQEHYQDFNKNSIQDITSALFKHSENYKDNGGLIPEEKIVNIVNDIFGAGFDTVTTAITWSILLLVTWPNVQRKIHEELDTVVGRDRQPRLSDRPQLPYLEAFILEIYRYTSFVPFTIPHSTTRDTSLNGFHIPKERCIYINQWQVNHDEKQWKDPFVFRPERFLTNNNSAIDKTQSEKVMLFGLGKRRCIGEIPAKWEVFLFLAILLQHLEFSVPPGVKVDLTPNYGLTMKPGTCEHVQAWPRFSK
As to the kind of experiment: P450-Glo luminescence assay in transfected Hana3A cells. To be noted: CD293 medium, 3 h, 37 °C; against mock transformant.

For `CC(=O)c1ccccc1` [acetophenone], the “CRE-luciferase reporter assay in Hana3A cells” value (shortened to “CRE-luciferase reporter assay”) at MOR164-2 was “We observed effects of CYPs on the responses of MOR123-2, MOR161-2 and MOR164-2”; on MOR123-2 it was “We observed effects of CYPs on the responses of MOR123-2, MOR161-2 and MOR164-2”; on MOR161-2 it was “We compared the response of MOR161-2 against acetophenone and methyl salicylate”.

Turning to `COc1ccc2nc(C3=NC(C(=O)O)CS3)sc2c1` (stereo not shown) [luciferin-ME], the “P450-Glo luminescence assay in transfected Hana3A cells” value on CYP1a2 was “Functional expression of CYP1a2 in Hana3A cells was confirmed by the P450-Glo assay using luciferin-ME”.

For the molecule `COC(=O)c1ccccc1` [methyl benzoate], at MOR161-2, the “CRE-luciferase reporter assay” value is “Potential intermediates are methyl benzoate and salicylate, and indeed MOR161-2 responded to both of them”.

For the molecule `COC(=O)c1ccccc1O` [methyl salicylate], at MOR161-2, the “CRE-luciferase reporter assay” value is “MOR161-2 showed a larger response to methyl salicylate than acetophenone”.

In the case of `O=C(O)c1ccccc1O` [salicylic acid], the “CRE-luciferase reporter assay” value on MOR161-2 was “Potential intermediates are methyl benzoate and salicylate, and indeed MOR161-2 responded to both of them”.

The values above are taken from article PMC5579037, “Modification of the response of olfactory receptors to acetophenone by CYP1a2” (Scientific Reports, 2017).
